US20030069276A1, “Amino piperidine derivatives” (priority 2001, published 2003)
pIC50: −log10 of the molar value.

target: human CCR5 (Homo sapiens, UniProt P51681); assay: gp120-sCD4-CCR5 binding assay (FACS); conditions: CHO-K1 cell line stably transfected with the human CCR5 gene; biotinylated gp120 (JRFL strain) and soluble recombinant CD4; 1% DMSO
Description: gp120-sCD4-CCR5 Binding Assay:
The gp120-sCD4-CCR5 binding assay was carried out as previously described (Dragic, T., A. Trkola, et al. (2000). “A binding pocket for a small molecule inhibitor of HIV-1 entry within the transmembrane helices of CCR5.” Proc Natl Acad Sci USA 97: 5639-44.) with the following minor modifications: the cell line used for these experiments was a CHO-K1 cell line stably transfected with the human CCR5 gene; the gp120-CD4 complex comprised recombinant biotinylated gp120 (JRFL strain) and soluble recombinant CD4; and all compounds were tested in a final concentration of 1% DMSO.
All reagents and cell lines were obtained from Progenics Pharmaceuticals Inc, Tarrytown, N.Y., USA, and are commercially available or can be prepared according to the methods described and the information given in the papers above.

human CCR5, sequence (P51681 whole entry): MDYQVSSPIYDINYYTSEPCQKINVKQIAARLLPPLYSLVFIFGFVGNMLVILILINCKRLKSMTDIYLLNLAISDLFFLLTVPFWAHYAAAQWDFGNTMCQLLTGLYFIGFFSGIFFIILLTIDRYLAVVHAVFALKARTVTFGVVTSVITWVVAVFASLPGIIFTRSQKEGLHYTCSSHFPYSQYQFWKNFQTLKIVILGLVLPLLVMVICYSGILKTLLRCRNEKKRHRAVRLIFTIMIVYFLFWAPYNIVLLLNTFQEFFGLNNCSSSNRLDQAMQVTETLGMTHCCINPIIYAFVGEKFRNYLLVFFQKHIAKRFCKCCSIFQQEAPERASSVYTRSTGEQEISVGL

Row | SMILES | pIC50
1 | CNC(=O)N(Cc1ccccc1)C1CCN(Cc2c(C)nc(-c3ccc(C(F)(F)F)cc3)n2Cc2ccccc2)CC1 [1-Benzyl-1-[1-[[3-benzyl-5-methyl-2-[4-(trifluoromethyl)phenyl]-3H-imidazol-4-yl]methyl]-4-piperidinyl]-3-methylurea] | 5.96
2 | CNC(=O)N(Cc1ccccc1)C1CCN(Cc2nc(-c3ccccc3OC)[nH]c2C)CC1 [1-Benzyl-1-{1-[2-(2-methoxy-phenyl)-5-methyl-1H-imidazol-4-ylmethyl]-piperidin-4-yl}-3-methyl-urea] | 5.02
3 | CNC(=O)N(Cc1ccccc1)C1CCN(Cc2nc(-c3ccc(C(F)(F)F)cc3)[nH]c2-c2ccccc2)CC1 [1-Benzyl-3-methyl-1-[1-[[5-phenyl-2-[4-(trifluoromethyl)phenyl]-1H-imidazol-4-yl]methyl]-4-piperidinyl]urea] | 4.72

Stronger by pIC50, values ahead:

Row | pIC50 | SMILES
4 | 7.52 | Cc1ccc(-c2nc(CN3CCC(N(Cc4ccccc4)C(=O)Nc4ccccc4)CC3)c(C)[nH]2)cc1 [1-Benzyl-1-[1-[5-methyl-2-(4-methylphenyl)-1H-imidazol-4-ylmethyl]-4-piperidinyl]-3-phenylurea]
5 | 6.35 | Cc1[nH]c(-c2ccc(C(F)(F)F)cc2)nc1CN1CCC(N(Cc2ccccc2)C(=O)Nc2ccc([N+](=O)[O-])cc2)CC1 [1-Benzyl-1-[1-[[2-[4-(trifluoromethyl)phenyl]-5-methyl-1H-imidazol-4-yl]methyl]-4-piperidinyl]-3-(4-nitrophenyl)urea]
6 | 6.96 | CNC(=O)N(Cc1ccccc1)C1CCN(Cc2nc(-c3ccc(C(F)(F)F)cc3)[nH]c2C)CC1 [1-Benzyl-3-methyl-1-[1-[[5-methyl-2-[4-(trifluoromethyl)phenyl]-1H-imidazol-4-yl]methyl]-4-piperidinyl]urea]
